Key:
[1] = test system: Trichomonas vaginalis Ito; experiment: Antitrichomonas activity test using mice; format: in vivo, Trichomonas vaginalis Ito in SLC-ICR strain male mice
Text: Test Compounds: SF-1540-A' (substance SF-1540 treated with methanol). Control--Flagyl (MNZ, available from Shionogi Seiyaku K.K., Japan)=Metronidazol--1'-(2'-Hydroxyethyl)-2'-methyl-5'-nitroimidazole [drawing 1]
1. Test protozoa strain: Trichomonas vaginalis Ito
2. Host animals: SLC-ICR strain male mice of average body weight of 20 g. and 5-week age, each group consisting of 5 animals.
3. Inoculation of protozoa: Protozoa were inoculated to Bacto-Kupferberg Trichomonas base (Difco; 20% calf serum added), cultivation was conducted at 37° C. for 24 hours, propagated protozoa were collected and centrifuged at 1500 r.p.m. for 5 minutes and then washed twice with centrifugation in sterilized Locke-Ringer's solution. The supernatant was discarded and the residue was diluted with sterilized Ringer's solution so as to have a protozoal number of 500×10^4 ml. Each 0.2 ml. portion (the protozoal number of 100×10^4) was inoculated to mice at subcutaneous sites of the back thereof wherein fur was previously removed.
4. Preparation of test samples: Each test compound was asceptically weighed, finely-divided in a sterilized mortar and then suspended in a 1% CMC solution to form suspensions of given concentrations.
5. Dose and administration: The SF-1540-A' was used at 3 dose levels: 50 mg./kg. (1 mg./0.2 ml./mouse/day), 25 mg./kg. (0.5 mg./0.2 ml./mouse/day) and 12.5 mg./kg. (0.25 mg./0.2 ml./mouse/day), while Flagyl as control was used at 2 dose levels: 25 mg./kg. (0.5 mg./0.2 ml./mouse/day) and 12.5 mg./kg. (0.25 mg./0.2 ml./mouse/day). After 24 hours from protozoa inoculation, the SF-1540-A' was given subcutaneously and Flagyl orally once a day for 6 days (Total, 6 times). As control, each 0.2 ml. portion of a 1% CMC solution was subcutaneously administered.
Formation of an abscess at a subcutaneous site of the back of a host animal was visually detectable for its protuberance after 48 hours from the protozoa inoculation.
Size of abscess was measured when sacrificed and cultivated to confirm effectiveness of the test compound after 24 hours from the 6 administrations.

[2] = test system: rice blast pathogenic fungus (Pyricularia oryzae); format: in vivo; conditions: 5 ppm

SMILES | difference from 1% CMC group (Tukey) ([1]; 12.5 mg./kg. orally) | difference from 1% CMC group (Tukey) ([1]; 25 mg./kg. orally) | abscess, visual observation ([1]; 25 mg./kg. orally once a day, after 3 administrations) | abscess at sacrifice, 24 hours after 6 administrations ([1]; mouse, in vivo, po) | bulge upon sacrifice ([1]; mouse, in vivo, po) | Preventive & curative value [2] [%] | Average number of diseased spots per leaf ([2]; after 5 days)
Cc1ncc([N+](=O)[O-])n1CCO [Flagyl, 1'-(2'-Hydroxyethyl)-2'-methyl-5'-nitroimidazole] | significant at the 5% level of significance | significant at the 1% level of significance | a remarkable reduction in abscess | abscess disappeared | only a slight bulge |  | 
CN(CCC(N)CC(=O)NC1C=CC(n2ccc(N)nc2=O)OC1C(=O)O)C(=N)N (stereo not shown) [Blasticidin S] |  |  |  |  |  | 85 | 3.6

Reference: patent US4181715A (priority 1975, dated 1980)
